Results on two compounds are retold here after patent US12318452B2, “Degraders of WEE1 kinase” (DANA-FARBER CANCER INSTITUTE, INC., priority 2018, dated 2025).

The target in experiment [1] is T1, Wee1 (Homo sapiens, UniProt P30291). In words: LanthaScreen FRET-based biochemical binding assay for Wee1. To be noted: LanthaScreen Binding activity assay; average of two replicates ± SD. How it is done:
LanthaScreen™ assays were conducted for Wee1 in a 10-point dose response as performed in the commercial assay service by Life Technologies™. Z′-LYTE™ assays were conducted for PLK1 as performed in the commercial assay service by Life Technologies™ in a 10-point dose response using Km ATP concentrations.
(In general: Time-resolved FRET reads energy transfer from a long-lived donor to a nearby acceptor.)

In experiment [2] the test system is MOLT4 cells (parental, wild type). In words: CellTiter-Glo cell viability, 72 hours. The experiment is classed as cell-based. To be noted: Homo sapiens, MOLT-4, 72 hours, read-out: Antiproliferative IC50. How it is done: The indicated cell lines were plated in flat bottom 384-well plates (Corning® cat #3570). MOLT4 cells were plated at a density of 3,000 cells per well in 50 μL media, while OVCAR8, COV362, and Kuramochi cells were plated at a density of 750 cells per well in 50 μL media. Cells were treated the next day (except for MOLT4 cells, which were treated the same day as plating) with 0.1 μL of the indicated compounds in a four-fold dilution series using the Janus pinner. Cells were incubated with compounds for 72 hours at 37° C. 5% CO2. Anti-proliferative effects were then assessed by CellTiter-Glo® Luminescent Cell Viability Assay (Promega™ cat #G7570) according to the manufacturer's standards, measuring luminescence using an EnVision® plate-reader. IC50 values were determined using a non-linear regression curve fit in GraphPad Prism 8. N=4 biological replicates were used for each treatment condition.
MOLT4 cells were plated in a 384-well plate at 5,000 cells per well in 50 μL media (RPMI+10% FBS+1% Penn/Strep) and treated with 0.1 μL of the candidate compounds in four-fold dilution series using the Janus pinner. Cells were incubated with compounds for 72 hours at 37° C. 5% CO2. Anti-proliferative effects of these compounds were assessed 72 hours after compound addition using CellTiter-Glo® (Promega, cat #G7571). All proliferation assays were performed in biological quadruplicate. […] Effects upon cell viability for compound 13 in the MOLT4 WT cells are therefore likely driven in part by Wee1 inhibition, and in part by CRBN-mediated Wee1 degradation. […] Degradation of Wee1 with compound 21 was mediated by VHL.

The test system of experiment [3] is 300 suspension and hematopoietic cancer cell lines. In words: PRISM pooled cytotoxicity assay. The experiment is classed as cell-based.
In experiment [4] the target is T1, Wee1. In words: Cellular degradation of Wee1 by immunoblot, 6-hour treatment of MOLT4 cells. The experiment is classed as cell-based. Also noted: endogenous in cells; host or cells: MOLT4 (wild type; CRBN-/- as control). To be noted: for Wee1 degradation / percent Wee1 degradation at 1 µM: MOLT4 cells; for Wee1 degradation: immunoblot; for percent Wee1 degradation at 1 µM: MOLT-4, 1 μM, approximated by immunoblot, read-out: Extent of Degradation of Wee1. How it is done:
General Protocol: HT-29, MOLT4 wild type (WT) or CRBN^-/- cells were plated in a 6 well plate and treated for 6 hours with the indicated concentrations of the inventive compounds and control. HT-29 cells were cultured in McCoy's Media supplemented with 10% FBS and 1% Penicillin/Streptomycin. MOLT4 WT and CRBN^-/- cells were cultured in Roswell Park Memorial Institute (RPMI) medium supplemented with 10% FBS and 1% Penicillin/Streptomycin. Mycoplasma testing was performed every month and all lines were negative. Immunoblotting: Cells were washed with phosphate-buffered saline (PBS) and then lysed using radioimmunoprecipitation assay (RIPA) buffer supplemented with protease and phosphatase inhibitor cocktail (Roche) on ice for 15 minutes. The lysates were centrifuged at 14,000 rpm for 15 minutes at 4° C. and protein was quantified by bicinchoninic acid (BCA) assay (PierceTM). Primary antibodies used include: Wee1 ([…]) (Cell Signaling Technology®, 13084S), polo-like kinase 1 (PLK1) (Thermo Fisher Scientific, 37-7000), phosphor-cdc2 (Y15) (10A11) (Cell Signaling Technology®, […]), phospho-histone H3 ([…]) (Cell Signaling Technology®, […]), Ikaros ([…]) (Cell Signaling Technology®, 14859S), Aiolos ([…]) (Cell Signaling Technology®, 15103), casein kinase 1 alpha (Abcam®, 108296), β-actin (Cell Signaling Technology®, 8H10D10). FIG. 2A is an immunoblot showing that compound 13 degraded Wee1 after a 6-hour treatment in MOLT4 cells, and induced the downstream changes expected from Wee1 loss-including a decrease in phosphorylated cyclin-dependent kinase 1 (pCDK1) (Y15) and an increase in pH 3. […] Degradation of Wee1 by compound 13 was rescued in MOLT4 CRBN^-/- cells. MOLT4 WT and CRBN^-/- cells were plated in a 6-well plate at 2.25 million cells per well in 3 mL media (RPMI+10% FBS+1% Penn/Strep). After treatment with the indicated concentrations of candidate compounds, cells were incubated for 6 hours at 37° C. 5% CO2. To harvest, the cells were washed 1× with cold PBS, then collected by centrifugation. Cell pellets were lysed in RIPA buffer with protease and phosphatase inhibitors (Roche). Lysates were clarified by centrifugation, and protein concentrations were normalized using a BCA assay (Thermo ScientificTM). The samples were diluted with 4×LDS+10% β-mercaptoethanol, and were boiled at 95° C. for 5 minutes. Proteins of interest were then assessed by western blotting. […] The experimental protocol was the same as in Example 28.
For orientation: In western blotting, separated proteins are transferred to a membrane and probed.

The structures appear in SMILES notation.

T1 sequence (P30291 whole entry): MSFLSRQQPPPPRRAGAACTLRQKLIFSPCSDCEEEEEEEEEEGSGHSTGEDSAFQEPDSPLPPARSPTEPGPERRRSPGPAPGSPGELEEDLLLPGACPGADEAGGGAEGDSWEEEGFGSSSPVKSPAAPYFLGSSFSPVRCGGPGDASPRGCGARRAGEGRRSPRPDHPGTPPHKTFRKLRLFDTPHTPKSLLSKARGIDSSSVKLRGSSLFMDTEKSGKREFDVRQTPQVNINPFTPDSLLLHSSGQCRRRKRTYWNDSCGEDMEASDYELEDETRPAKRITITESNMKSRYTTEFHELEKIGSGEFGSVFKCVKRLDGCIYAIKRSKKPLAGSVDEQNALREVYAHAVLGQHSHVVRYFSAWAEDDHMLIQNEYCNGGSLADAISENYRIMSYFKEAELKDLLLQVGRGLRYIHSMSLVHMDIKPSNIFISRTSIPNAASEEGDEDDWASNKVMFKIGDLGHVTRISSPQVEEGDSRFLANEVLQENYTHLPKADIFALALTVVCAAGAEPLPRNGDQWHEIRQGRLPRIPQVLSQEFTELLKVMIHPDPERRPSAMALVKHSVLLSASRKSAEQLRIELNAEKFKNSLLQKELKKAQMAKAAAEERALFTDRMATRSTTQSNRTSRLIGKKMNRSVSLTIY

Take `C=CCn1c(=O)c2cnc(Nc3ccc(N4CCN(CCCNc5cccc6c5C(=O)N(C5CCC(=O)NC5=O)C6=O)CC4)cc3)nc2n1-c1cccc(C(C)(C)O)n1` (centres unmarked) [Compound 13, 4-((3-(4-(4-((2-allyl-1-(6-(2-hydroxypropan-2-yl)pyridin-2-yl)-3-oxo-2,3-dihydro-1H-pyrazolo[3,4-d]pyrimidin-6-yl)amino)phenyl)piperazin-1-yl)propyl)amino)-2-(2,6-dioxopiperidin-3-yl)isoindoline-1,3-dione]: the IC50 is 3.58 ± 0.36 nM at Wee1 [1]; 390 nM in experiment [2]; under 1000 nM in experiment [3] (almost all of the lines tested, data not shown, read-out: IC50 values in PRISM panel). For the same compound, the “Wee1 degradation in CRBN−/− cells” value on Wee1 [4] (MOLT4 CRBN−/− cells) is given as “rescued”. Also, the Wee1 degradation entry at Wee1 [4] was “degraded Wee1”. In addition, on Wee1 [4], the percent Wee1 degradation at 1 µM was over 50%.
At Wee1 [1], `C=CCn1c(=O)c2cnc(Nc3ccc(N4CCN(CCCNc5cccc6c5C(=O)N(C5CCC(=O)N(C)C5=O)C6=O)CC4)cc3)nc2n1-c1cccc(C(C)(C)O)n1` (centres unmarked) [Compound 20, 4-((3-(4-(4-((2-allyl-1-(6-(2-hydroxypropan-2-yl)pyridin-2-yl)-3-oxo-2,3-dihydro-1H-pyrazolo[3,4-d]pyrimidin-6-yl)amino)phenyl)piperazin-1-yl)propyl)amino)-2-(1-methyl-2,6-dioxopiperidin-3-yl)isoindoline-1,3-dione] came in with a concentration for half-maximal inhibition (IC50) of 7.38 ± 0.47 nM. In experiment [2], the 50% inhibitory concentration (IC50) was determined as 4560 nM. The “Potency in PRISM panel relative to compound 13” value in experiment [3] is given as “uniformly less potent”. Further, at Wee1 [4], the Wee1 degradation result is given as “did not degrade Wee1” and the percent Wee1 degradation at 1 µM is under 25%.

For orientation: IC50 means the concentration at which inhibition is half-maximal.
